# In patent publication US5312812A, “Pharmaceutical compositions comprising novel oligopeptides exhibiting selective inhibiting effect upon the proliferation of hemopoietic cells” (Richter Gedeon Vegyeszeti Gyar Rt., priority 1990, dated 1994):
# Read-outs that look alike come from different tables or passages of the source. Where a SMILES comes first, the peptide text is derived from it. Where no end group is shown, it is not given here. [ ]: non-standard residue; d: D form. The star is where a group is joined. pGlu = O=C1CC[C@@H](C(=O)O)N1; Acm = CC(=O)NC*
# Columns and labels:
# mouse bone marrow cells [1] = format: cell-based
# Description: For the long-term cultivation, cells isolated from mouse bone marrow were used in semi-solid agar culture. 1.5×10^5 femoral medulla cells obtained from 2-3 month old male C57B1 mice were suspended in 1 ml of "McCoy 5A" medium (product of Gibco), then the following were added: 20% by volume of horse blood-serum (product of Gibco), 16% by volume of L-cell CSF (colony stimulating factor prepared from the supernatant of […]; product of the Pharmacological Institute of the Medical University of Debrecen, Hungary) and agar-agar to 0.18% by weight. 100 μl of the semi-solid medium were cultivated in a Micropet capillary for 7 days in the above-described manner, then the colonies were counted under a Zeiss-Cytoplast stereomicroscope of 40-times magnification. The results are given as the percentage reduction of the numbers of colonies compared to the untreated control. The tests were carried out in the presence of 0.25 mmole/l mercapto ethanol (+ME) and without mercapto ethanol (-ME).
# mouse = settings: two mouse species; dose of 9.1 mg/animal or 1 mg/animal; cited from earlier work
# mouse bone marrow cells [2] = settings: 10^-15 to 10^-4 mole/l, 7-day in vitro treatment; cited from earlier work
# human bone marrow cells = settings: 10^-15 to 10^-4 mole/l, 7-day in vitro treatment; cited from earlier work
# cell proliferation = settings: cited from earlier work
molecule,measurement,setting,value
"CC(=O)NCSC[C@H](NC(=O)[C@H](CC(=O)O)NC(=O)[C@H](CCC(=O)O)NC(=O)[C@@H]1CCC(=O)N1)C(=O)N[C@@H](CCCCN)C(=O)O [SEQ I.D. No: 1, Xaa Glu Asp Cys Lys] ([pGlu]EDC(Acm)K-OH)",percentage reduction of the numbers of colonies compared to the untreated control,mouse bone marrow cells [1]; 1e-12 mole/l,70%
same,percentage reduction of the numbers of colonies compared to the untreated control,mouse bone marrow cells [1]; 1e-8 mole/l,77%
same,percentage reduction of the numbers of colonies compared to the untreated control,mouse bone marrow cells [1]; 1e-4 mole/l,81%
"CC(=O)NCSC[C@H](NC(=O)[C@H](CC(=O)O)NC(=O)[C@@H](N)CCC(=O)O)C(=O)N[C@@H](CCCCN)C(=O)O [SEQ I.D. No: 2, Glu Asp Cys Lys] (H-EDC(Acm)K-OH)",percentage reduction of the numbers of colonies compared to the untreated control,mouse bone marrow cells [1],29%
same,percentage reduction of the numbers of colonies compared to the untreated control,mouse bone marrow cells [1]; 1e-12 mole/l,36%
same,percentage reduction of the numbers of colonies compared to the untreated control,mouse bone marrow cells [1]; 1e-10 mole/l,52%
same,percentage reduction of the numbers of colonies compared to the untreated control,mouse bone marrow cells [1]; 1e-9 mole/l,26%
same,percentage reduction of the numbers of colonies compared to the untreated control,mouse bone marrow cells [1]; 1e-8 mole/l,64%
same,percentage reduction of the numbers of colonies compared to the untreated control,mouse bone marrow cells [1]; 1e-6 mole/l,66%
"NCCCC[C@H](NC(=O)[C@H](CS)NC(=O)[C@H](CC(=O)O)NC(=O)[C@H](CCC(=O)O)NC(=O)[C@@H]1CCC(=O)N1)C(=O)O [SEQ I.D. No: 5, Xaa Glu Asp Cys Lys] (HELM PEPTIDE1{[Glp].E.D.C.K}$$$$V2.0)",toxicity to mice,mouse,not toxic
same,toxicity to bone marrow cells,mouse bone marrow cells [2],not toxic
same,toxicity to bone marrow cells,human bone marrow cells,not toxic
"Xaa Glu Asp Cys Lys Xaa Glu Asp Cys Lys ([pGlu]EDCK[pGlu]EDCK; not fully specified; printed as Xaa Glu Asp Cys Lys Xaa Glu Asp Cys Lys; cysteine pairing not given here) [SEQ I.D. No: 3, dimer molecule of the hemoregulating pentapeptide, Xaa is pyroglutamic acid]",effect on cell proliferation,cell proliferation,cell proliferation stimulating effect
"Xaa Glu Asp Met Lys ([pGlu]EDMK) [SEQ I.D. No: 4, Met analogue of the pentapeptide, Xaa is pyroglutamic acid]",effect on cell proliferation,cell proliferation,ineffectiveness
